Data taken from US4835160A, “Derivatives of pyridoindole, having anti-tumor properties” (Sanofi, priority 1986, dated 1989).
pIC50: −log10 of the molar value.

Experiments:
[1] = system: leukemia tumour line L 1210; experiment: In vitro cytotoxic activity on leukemia tumour line L 1210; assay type: cell-based; details: Mus musculus, L1210, 48 h, L 1210, 48 hours contact, 37° C.; read-out: I D 50 (concentration which inhibits the proliferation of the cells by 50%)
Summary of the method: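 Exponentially growing L 1210 leukemia cells were exposed to increasing compound concentrations at 37 °C under CO2 and counted every 24 h. ID50, the concentration inhibiting proliferation by 50%, was calculated after 48 h contact.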

[2] = system: leukemia L 1210; experiment: Test for leukemia L 1210, IP/IP, D1-D5; assay type: in vivo, CDF1 hybrid mice; details: for Number of survivors: day D60; for T/C %: survival time
Experimental: (§1) The antitumour activity was tested in vivo on various tumours inoculated in various ways according to the following general protocol:
(§2) All the male or female mice are inoculated on day D0 with a known quantity of viable tumour cells for ascitic tumours or with a known tumour fragment for solid tumours.
(§3) They are then distributed into various groups. Each group, corresponding to the animals treated by the product under test, is made up of 10 mice. The product under test is dissolved in distilled water and it is administered n times (Dx-Dy), n, y, and x varying according to the protocol chosen, at the rate of 0.1 ml of solution per 10 g by weight of mice treated and at specific doses for each protocol.
(§4) The "negative control" group, corresponding to the animals which are not treated by the product, contains 2√N animals, N being equal to or greater than the total number of mice treated by the product in the same experiment.
(§5) Finally, the tests can also be carried out at the same time as the study of a group called "positive control", of ten animals, which is treated by a molecule, known for its antitumour activity and which can vary according to the protocol chosen, in the same conditions as the groups treated by the product under test.
(§6) The antitumour activity is evaluated, in the case of ascitic tumours, by considering the increase in the survival time of the animals treated in comparison to that of the animals in the "negative control" group, according to the formula: [formula]
(§7) Also, a product is considered as toxic at the dose studied when this T/C value is equal to or less than 85%. In addition, a product is also considered as toxic at the dose studied when the weight variation, expressed in grams and calculated by the formula: […]
(c) Test for leukemia L 1210, IP/IP, D-5 (GERAN et al., Cancer cheomother.,1972, 2, 07-57).
(§8) The tests are carried out with CDF1 hybrid mice inoculated by intraperitoneal route with 10^5 leukemia cells from the L 1210 line. The compound under test is administered for 5 days (D1-D5) by intraperitoneal route. The positive control for the test is 5-fluorouracile administered in the same conditions. The number of surviving animals is evaluated on day D60.

[3] = system: reticulosarcoma M5-M5076; experiment: Test for reticulosarcoma M5-M5076; assay type: in vivo, BDF1 hybrid mice; details: D1,5,9,13,17; for Number of survivors: day D75; for T/C %: survival time
Experimental: as §1, §2, §3, §4, §5, §6, §7
The tests are carried out with BDF1 hybrid mice inoculated by intraperitoneal route with 10^6 cells of the M5-M5076 line. The compound under test is administered 5 times successively in sequence (D1,5,9,13,17) by intraperitoneal route. The positive control for the test is cyclophosphamide administered in the same conditions. The number of surviving animals is evaluated on day D75.

[4] = system: leukemia L 1210; experiment: Test for leukemia L 1210 IP/D1 IV; assay type: in vivo, CDF1 hybrid mice; details: 20 mg/kg IV
Experimental: as §1, §2, §3, §4, §5, §6, §7, §8
(g) Test for leukemia L 1210 IP/D1 IV. (GERAN et al., Cancer Chemother., 1972, 2, 07-57).
The test is carried out according to the same protocol as that described for test (c), the compound under test being administered by intravenous route only on day D1.

CCN(CC)CCCNc1ncc(C)c2[nH]c3ccc(O)cc3c12 [Derivative No. 7, 1-(diethylaminopropylamino)-8-hydroxy-4-methyl-5H-pyrido[4,3-b]indole]
pIC50 [1]: 7.22 | Median day of survival ([2]; 0.625 mg/kg IP): 11.75 days | Variation by weight ([2]; 0.625 mg/kg IP): -0.9 g | Number of survivors ([2]; 0.625 mg/kg IP): 0/10 | T/C % ([2]; 0.625 mg/kg IP): 133% | Median day of survival ([2]; 1.25 mg/kg IP): 14.25 days | Variation by weight ([2]; 1.25 mg/kg IP): -1.2 g | Number of survivors ([2]; 1.25 mg/kg IP): 0/10 | T/C % ([2]; 1.25 mg/kg IP): 162% | Median day of survival ([2]; 2.5 mg/kg IP): 20.75 days | Variation by weight ([2]; 2.5 mg/kg IP): -1.1 g | Number of survivors ([2]; 2.5 mg/kg IP): 4/10 | T/C % ([2]; 2.5 mg/kg IP): 236% | Median day of survival ([2]; 5 mg/kg IP): 14.0 days | Variation by weight ([2]; 5 mg/kg IP): -0.8 g | Number of survivors ([2]; 5 mg/kg IP): 2/10 | T/C % ([2]; 5 mg/kg IP): 159% | Median day of survival ([2]; 10 mg/kg IP): 37.0 days | Variation by weight ([2]; 10 mg/kg IP): -2.2 g | Number of survivors ([2]; 10 mg/kg IP): 5/10 | T/C % ([2]; 10 mg/kg IP): 420% | Median day of survival ([2]; 20 mg/kg IP): 35.0 days | Variation by weight ([2]; 20 mg/kg IP): -4.2 g | Number of survivors ([2]; 20 mg/kg IP): 5/10 | T/C % ([2]; 20 mg/kg IP): 398% | Median day of survival ([2]; 30 mg/kg IP): 8.25 days | Variation by weight ([2]; 30 mg/kg IP): -5.6 g | Number of survivors ([2]; 30 mg/kg IP): 0/10 | T/C % ([2]; 30 mg/kg IP): 94% | Median day of survival ([3]; 2.5 mg/kg IP): 31.25 days | Variation by weight ([3]; 2.5 mg/kg IP): -1.0 g | Number of survivors ([3]; 2.5 mg/kg IP): 0/10 | T/C % ([3]; 2.5 mg/kg IP): 120% | Median day of survival ([3]; 5 mg/kg IP): 33.0 days | Variation by weight ([3]; 5 mg/kg IP): -1.4 g | Number of survivors ([3]; 5 mg/kg IP): 1/10 | T/C % ([3]; 5 mg/kg IP): 127% | Median day of survival ([3]; 10 mg/kg IP): 37.25 days | Variation by weight ([3]; 10 mg/kg IP): -1.8 g | Number of survivors ([3]; 10 mg/kg IP): 0/10 | T/C % ([3]; 10 mg/kg IP): 143% | Median day of survival ([3]; 20 mg/kg IP): 41.0 days | Variation by weight ([3]; 20 mg/kg IP): -1.9 g | Number of survivors ([3]; 20 mg/kg IP): 0/10 | T/C % ([3]; 20 mg/kg IP): 158% | Median day of survival ([3]; 40 mg/kg IP): 42.0 days | Variation by weight ([3]; 40 mg/kg IP): -1.8 g | Number of survivors ([3]; 40 mg/kg IP): 1/10 | T/C % ([3]; 40 mg/kg IP): 161%

Cc1cnc(NCCCN(C)C)c2c1[nH]c1ccc(O)cc12 [Derivative No. 10, 1-(3-dimethylaminopropylamino)-8-hydroxy-4-methyl-5H-pyrido[4,3-b]indole]
Median day of survival ([2]; 1.25 mg/kg IP): 12.75 days | Variation by weight ([2]; 1.25 mg/kg IP): -1.7 g | Number of survivors ([2]; 1.25 mg/kg IP): 1/10 | T/C % ([2]; 1.25 mg/kg IP): 145% | Median day of survival ([2]; 2.5 mg/kg IP): 20.0 days | Variation by weight ([2]; 2.5 mg/kg IP): -2.1 g | Number of survivors ([2]; 2.5 mg/kg IP): 4/10 | T/C % ([2]; 2.5 mg/kg IP): 227% | Median day of survival ([2]; 5 mg/kg IP): > 60 days | Variation by weight ([2]; 5 mg/kg IP): -2.7 g | Number of survivors ([2]; 5 mg/kg IP): 6/10 | T/C % ([2]; 5 mg/kg IP): > 682% | Median day of survival ([2]; 10 mg/kg IP): 15.25 days | Variation by weight ([2]; 10 mg/kg IP): -3.1 g | Number of survivors ([2]; 10 mg/kg IP): 4/10 | T/C % ([2]; 10 mg/kg IP): 173% | Median day of survival ([2]; 20 mg/kg IP): 8.4 days | Variation by weight ([2]; 20 mg/kg IP): -5.6 g | Number of survivors ([2]; 20 mg/kg IP): 0/10 | T/C % ([2]; 20 mg/kg IP): 95% | Median day of survival ([3]; 1.25 mg/kg IP): 34.0 days | Variation by weight (g) ([3]; 1.25 mg/kg IP): +2.7 g | Number of survivors ([3]; 1.25 mg/kg IP): 1/10 | T/C % ([3]; 1.25 mg/kg IP): 133% | Median day of survival ([3]; 2.5 mg/kg IP): 33.0 days | Variation by weight (g) ([3]; 2.5 mg/kg IP): +0.4 g | Number of survivors ([3]; 2.5 mg/kg IP): 1/10 | T/C % ([3]; 2.5 mg/kg IP): 129% | Median day of survival ([3]; 5 mg/kg IP): 40.0 days | Variation by weight (g) ([3]; 5 mg/kg IP): +2.1 g | Number of survivors ([3]; 5 mg/kg IP): 1/10 | T/C % ([3]; 5 mg/kg IP): 156% | Median day of survival ([3]; 10 mg/kg IP): 42.0 days | Variation by weight (g) ([3]; 10 mg/kg IP): +1.2 g | Number of survivors ([3]; 10 mg/kg IP): 1/10 | T/C % ([3]; 10 mg/kg IP): 164% | Median day of survival ([3]; 20 mg/kg IP): 44.75 days | Variation by weight ([3]; 20 mg/kg IP): 0.0 g | Number of survivors ([3]; 20 mg/kg IP): 1/10 | T/C % ([3]; 20 mg/kg IP): 175% | Median day of survival ([3]; 40 mg/kg IP): 46.0 days | Variation by weight ([3]; 40 mg/kg IP): -2.8 g | Number of survivors ([3]; 40 mg/kg IP): 2/10 | T/C % ([3]; 40 mg/kg IP): 180%

Cc1cnc(NCCCN(C)C)c2c3cc(O)ccc3n(C)c12 [Derivative No. 14, 4,5-dimethyl 1(3-dimethylaminopropylamino)-8-hydroxy-5H-pyrido[4,3-b]indole]
pIC50 [1]: 7.85 | Median day of survival [4]: 14.0 days | Variation by weight [4]: -1.1 g | Number of survivors ([4]; day D60): 0/10 | T/C % ([4]; survival time): 157%
